Data: patent US20190053492A1, “SUBSTITUTED PYRIDINE COMPOUNDS AS PESTICIDES” (Bayer CropScience Aktiengesellschaft, priority 2016, published 2019)
Like-named read-outs stand apart in the source and are kept apart here.

Tests used:
[1] = log P by HPLC on reversed-phase column (C 18), EEC Directive 79/831 Annex V.A8; type: physicochemical; conditions: 55° C.; for LOGP_HCOOH: log P (HCOOH); for chromatographic logP: reversed-phase HPLC column (C 18)
Method: Temperature: 55° C. […] Called log P (HCOOH) in the table. […] Called log P (neutral) in the table.

[2] = system: Phaedon cochleariae; test: Phaedon cochleariae spray test; type: in vivo; conditions: after 7 days, Chinese cabbage leaf discs
In short: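 Chinese cabbage leaf discs sprayed with compound in acetone/DMF and emulsifier-containing water, then infested with mustard beetle larvae once dry. Efficacy in % scored after 7 days (100% = all larvae killed, 0% = none).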

[3] = system: Tetranychus urticae; test: Tetranychus urticae spray test, OP-resistant; type: in vivo; conditions: after 6 days, bean leaf discs
Method: Tetranychus urticae—Spray Test, OP-Resistant
Solvent: 78.0 parts by weight of acetone • • 1.5 parts by weight of dimethylformamide
Emulsifier: alkylaryl polyglycol ether
To produce a suitable active ingredient formulation, 1 part by weight of active ingredient is dissolved with the specified parts by weight of solvent and made up with water containing an emulsifier concentration of 1000 ppm until the desired concentration is attained. To produce further test concentrations, the formulation is diluted with emulsifier-containing water.
Discs of bean leaves (Phaseolus vulgaris) infested with all stages of the greenhouse red spider mite (Tetranychus urticae) are sprayed with an active ingredient formulation of the desired concentration.
After 6 days, the efficacy in % is determined. 100% means that all the spider mites have been killed; 0% means that no spider mites have been killed.

[4] = system: Meloidogyne incognita; test: Meloidogyne incognita test; type: in vivo; conditions: application rate 20 ppm, after 14 days, lettuce
Method: Meloidogyne incognita Test Solvent: 125.0 parts by weight of acetone To produce a suitable active ingredient formulation, 1 part by weight of active ingredient is mixed with the stated amount of solvent and the concentrate is diluted with water to the desired concentration. Vessels are filled with sand, active ingredient solution, an egg/larvae suspension of the southern root-knot nematode (Meloidogyne incognita) and lettuce seeds. The lettuce seeds germinate and the plants develop. The galls develop on the roots. After 14 days, the nematicidal efficacy in % is determined by the formation of galls. 100% means that no galls were found; 0% means that the number of galls on the treated plants corresponds to the untreated control.

[5] = system: Ctenocephalides felis; test: Ctenocephalides felis oral test; type: in vivo; conditions: application rate 100 ppm in citrated cattle blood, after 2 days, adult cat fleas
In short: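 About 20 unfed adult cat fleas fed through a parafilm membrane on citrated cattle blood dosed with compound from a DMSO formulation. Percent kill was scored after 2 days.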

[6] = system: Spodoptera frugiperda; test: Spodoptera frugiperda spray test; type: in vivo; conditions: after 7 days, maize leaf discs
In short: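 Maize leaf discs were sprayed with compound formulated in acetone/DMF and emulsifier-containing water, dried, then infested with Spodoptera frugiperda caterpillars. Percent kill was scored after 7 days, from 100% (all dead) to 0% (none dead).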

[7] = system: Lucilia cuprina; test: Lucilia cuprina test; type: in vivo; conditions: application rate 100 ppm, after 2 days, L1 larvae
In short: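 Active ingredient dissolved in DMSO and diluted with water to the test concentration. About 20 first-instar sheep blowfly larvae placed on minced horsemeat containing the formulation; percentage of larvae killed scored after 2 days.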

[8] = system: Musca domestica; test: Musca domestica test; type: in vivo; conditions: application rate 100 ppm, after 2 days, adult houseflies
Method: Musca domestica Test Solvent: dimethyl sulphoxide To produce a suitable active ingredient formulation, 10 mg of active ingredient are mixed with 0.5 ml of dimethyl sulphoxide, and the concentrate is diluted with water to the desired concentration. Vessels containing a sponge treated with sugar solution and the active ingredient formulation of the desired concentration are populated with 10 adult houseflies (Musca domestica). After 2 days, the kill in % is determined. 100% means that all of the flies have been killed; 0% means that none of the flies have been killed.

[9] = acidic range pH 2.7, 0.1% aqueous formic acid and acetonitrile, reversed-phase column (C 18)
[10] = log P, neutral range, HPLC on reversed-phase column (C 18)
[11] = acidic range at pH 2.7, 0.1% aqueous formic acid and acetonitrile, HPLC on reversed-phase column (C 18)

LOGP_HCOOH [1, 9]	LOGP_NEUTRAL [1, 10]	LOGP_HCOOH [1, 11]	LOGP_NEUTRAL ([1]; log P (neutral), HPLC reversed-phase column (C 18))	chromatographic logP ([1]; pH 2.7, log P (HCOOH), acidic range pH 2.7, 0.1% aqueous formic acid and acetonitrile, reversed-phase column (C 18), read-out: LOGP_HCOOH)	chromatographic logP ([1]; pH 7.8, LC-MS neutral range, pH 7.8, ammonium hydrogencarbonate/acetonitrile, read-out: log P (neutral))	Structure (SMILES)	efficacy (beetle larvae killed) ([2]; application rate 500 g/ha)	efficacy (spider mites killed) ([3]; application rate 500 g/ha)	nematicidal efficacy (formation of galls) [4]	efficacy (kill in %) [5]	efficacy (caterpillars killed) ([6]; application rate 100 g/ha)	efficacy (caterpillars killed) ([6]; application rate 500 g/ha)	efficacy (kill in %) [7]	efficacy (spider mites killed) ([3]; application rate 100 g/ha)	efficacy (beetle larvae killed) ([2]; application rate 100 g/ha)	efficacy (kill in %) [8]	pest or weed control at 100 ppm ([5]; Ctenocephalides felis, po, 48 h, read-out: efficacy (kill in %))	pest or weed control at 500 g/ha ([6]; Spodoptera frugiperda, foliar, 168 h, application rate 500 g/ha, read-out: efficacy (caterpillars killed))
4.08	3.97					COC(=O)c1ccc(CNC(=O)c2cc(-c3ccc(OC(F)(F)F)cc3)cc(NC(=O)C3CC3)n2)cc1 [Example I-101]	83%	90%										
	3.26	3.29				COCCNC(=O)c1cc(-c2ccc(OC(F)(F)F)cc2)cc(NC(=O)C2CC2)n1 [Example I-177]			90%									
4.01	3.88					N#Cc1cccc(CCNC(=O)c2cc(-c3ccc(OC(F)(F)F)cc3)cc(NC(=O)C3CC3)n2)c1 [Example I-091]	100%	90%		95%	100%	100%	100%					
3.90			3.88			N#Cc1ccc(CNC(=O)c2cc(-c3ccc(OC(F)(F)F)cc3)cc(NC(=O)C3CC3)n2)s1 [Example I-255]		90%			83%	100%						
	3.74	3.81				N#Cc1ccc(CNC(=O)c2cc(-c3ccc(OC(F)(F)C(F)Cl)cc3)cc(NC(=O)C3CC3)n2)cc1 (stereo not shown) [Example I-194]	83%	90%						90%				
		4.23				O=C(NCc1ccccc1)c1cc(-c2ccc(OC(F)(F)F)cc2)cc(NC(=O)C2CC2)n1 [Example I-227]	100%	90%				100%		90%				
4.72						O=C(NN=Cc1ccc(C(F)(F)F)c(F)c1)c1cc(-c2ccc(OC(F)(F)F)cc2)cc(NC(=O)C2CC2)n1 [Example I-257]			90%			100%						
	3.40	3.46				CC(C#N)NC(=O)c1cc(-c2ccc(OC(F)(F)F)cc2)cc(NC(=O)C2CC2)n1 (stereo not shown) [Example I-115]	100%			100%	100%	100%	90%		100%	80%		
	4.07	4.24				N#Cc1ccc(CNC(=O)c2cc(-c3ccc(C(F)(F)C(F)(F)F)cc3)cc(NC(=O)C3CC3)n2)cc1 [Example I-182]	100%	90%		100%	100%	100%	100%		100%			
4.11	3.97					O=C(NCc1ccc([N+](=O)[O-])cc1)c1cc(-c2ccc(OC(F)(F)F)cc2)cc(NC(=O)C2CC2)n1 [Example I-085]	100%			100%	100%	100%	100%		100%	80%		
3.86	3.75					Cn1ccc(-c2ccc(CNC(=O)c3cc(-c4ccc(OC(F)(F)F)cc4)cc(NC(=O)C4CC4)n3)cc2)n1 [Example I-100]						83%		90%				
	4.57	4.27				N#Cc1ccc(CNC(=O)c2cc(-c3ccc4c(c3)OC(F)(F)C(F)(F)O4)cc(NC(=O)C3CC3)n2)cc1 [Example I-172]	100%			100%	100%	100%	100%			100%		
	4.14	4.29				N#CC1CCC(CNC(=O)c2cc(-c3ccc(C(F)(F)C(F)(F)F)c(F)c3)cc(NC(=O)C3CC3)n2)CC1 (stereo not shown) [Example I-185]	100%	90%			100%	100%			100%			
3.51	3.39					O=C(NC1CC1)c1cc(-c2ccc(OC(F)(F)F)cc2)cc(NC(=O)C2CC2)n1 [Example I-089]	100%			100%	100%	100%	95%		100%	100%		
	4.02	4.17				CC(NC(=O)c1cc(-c2ccc(OC(F)(F)F)cc2)cc(NC(=O)C2CC2)n1)c1ccc(C#N)cc1 (single isomer, unassigned) [Example I-218]	100%	90%			100%	100%		90%	100%			
3.86	3.71					O=C(NC1CC1)c1cc(-c2ccc(SC(F)(F)F)cc2)cc(NC(=O)C2CC2)n1 [Example I-105]	100%	100%		100%	83%	100%			100%			
3.87	3.79					N#Cc1ccc(CNC(=O)c2cc(-c3ccc(C(F)(F)F)cc3)cc(NC(=O)C3CC3)n2)cc1F [Example I-026]	100%			100%	100%	100%	100%		100%	100%		
3.99	3.96					CC(C)C(=O)Nc1cc(-c2ccc(C(F)(F)F)cc2)cc(C(=O)NCc2ccc(C#N)cc2F)n1 [Example I-078]	100%			100%	100%	100%	100%			100%		
	3.21			3.3	3.21	CN(C(=O)c1cc(-c2ccc(C(F)(F)F)cc2)cc(NC(=O)C2CC2)n1)C1CC1 [Example I-036, N-Cyclopropyl-6-[(cyclopropylcarbonyl)amino]-N-methyl-4-[4-(trifluoromethyl)phenyl]pyridine-2-carboxamide]		90%									100%	83%
